In patent US12342842B2, “Preparation for use in enhancing formation of short-chain fatty acids (SCFAs)” (Evonik Operations GmbH, priority 2019, dated 2025):

Columns and labels:
human colonic microbiota [1] = experiment: I-screen fermentation, SCFA analysis with omega-3 amino acid salts, FFA and amino acids (Examples 5 and 6); assay type: cell-based; details: salts 1.4 mg/ml; for Iso-butyrate / Iso-valerate: 24 h in SIEM, FFA 0.95 mg/ml, amino acids 0.5 mg/ml, means of triplicates; for Iso-butyrate: control 1.21; for Iso-valerate: control 2.74; for Propionate/acetate ratio / Propionate / Acetate: FFA 0.96 mg/ml, L-lysine 0.49, L-arginine 0.52, L-ornithine 0.5 mg/ml; for Propionate/acetate ratio: control 0.48; for Propionate: control 7.37; for Acetate: control 15.21
human colonic microbiota [2] = experiment: I-screen intestinal screening model, microbiota composition by V4 16S rRNA gene sequencing (Example 1); assay type: cell-based; details: omega-3-lys, EE, fish oil 1.4 mg/ml, inulin 4 mg/ml, means of triplicates
From the text: To determine the effect of omega-3 compounds on adult colonic microbiota, an intestinal screening model was used (I-screen, TNO, the Netherlands), which corresponds to colonic environment. A translation of such in vitro experiment towards an application in a living organism (animal or human) requires the use of a colon-specific delivery form to circumvent absorption of fatty acids in upper parts of the gastrointestinal tract. The use of compositions comprising omega-3 compounds in formulations enabling a colon-specific delivery is part of the present invention. […]
The microbiota composition was analyzed by 16S rRNA gene amplicon sequencing of the V4 hypervariable region. […]
The amount of bacterial DNA in the i-screen DNA samples was determined by quantitative polymerase chain reaction (qPCR) using primers specific for the bacterial 16S rRNA gene: Forward primer: CGAAAGCGTGGGGAGCAAA; Reverse primer: GTTCGTACTCCCCAGGCGG; Probe: 6FAM-[…]-MGB.
Subsequently, PCR amplicons of the V4 hypervariable region of the 16S rRNA gene were generated for the individual samples by amplification of 500 pg of DNA as described by Kozich et al. (2013), using F515/R806 primers (Caporaso et al. 2011). […] The amount of amplified DNA per sample was quantified using the dsDNA 910 Reagent Kit on the Fragment Analyzer (Advanced Analytical). […]

Compound	Iso-butyrate (human colonic microbiota [1])	Iso-valerate (human colonic microbiota [1])	Propionate/acetate ratio (human colonic microbiota [1])	Propionate (human colonic microbiota [1])	Acetate (human colonic microbiota [1])	Effect on colonic microbiota after 24 h incubation (variance explained versus control) (human colonic microbiota [2])
N=C(N)NCCC[C@H](N)C(=O)O [Arg, L-arginine]	1.21 mM	3.71 mM	0.40	9.39 mM	23.50 mM	–
NCCCC[C@H](N)C(=O)O [Lys, L-lysine]	1.47 mM	3.57 mM	0.40	9.49 mM	24.03 mM	–
NCCC[C@H](N)C(=O)O [Orn, L-ornithine]	1.37 mM	3.31 mM	0.36	9.11 mM	25.36 mM	–
inulin	–	–	–	–	–	40.2%
